Broadly, the IC50 is the concentration needed to halve the response being measured. A lower IC50 goes with greater potency in that assay. As usually defined, the GI50 is the concentration at which growth is held to half of that of the control.

A value given as a limit tells only on which side of the number the result lay.

The source of these data is ChEMBL document CHEMBL5653604, “ZSTK474, a novel phosphatidylinositol 3-kinase inhibitor identified using the JFCR39 drug discovery system” (Acta Pharmacol Sin, 2010).

Experiment [1] has as its target Phosphatidylinositol 4,5-bisphosphate 3-kinase catalytic subunit beta isoform (Homo sapiens, UniProt P42338). Description: Inhibition of p110 beta (unknown origin).
Experiment [2] addresses Phosphatidylinositol 4,5-bisphosphate 3-kinase catalytic subunit gamma isoform (Homo sapiens, UniProt P48736). Description: Inhibition of p110 gamma (unknown origin).
The target in experiment [3] is T1, Phosphatidylinositol 4,5-bisphosphate 3-kinase catalytic subunit delta isoform (Homo sapiens, UniProt O00329).
T1 sequence (O00329 whole entry): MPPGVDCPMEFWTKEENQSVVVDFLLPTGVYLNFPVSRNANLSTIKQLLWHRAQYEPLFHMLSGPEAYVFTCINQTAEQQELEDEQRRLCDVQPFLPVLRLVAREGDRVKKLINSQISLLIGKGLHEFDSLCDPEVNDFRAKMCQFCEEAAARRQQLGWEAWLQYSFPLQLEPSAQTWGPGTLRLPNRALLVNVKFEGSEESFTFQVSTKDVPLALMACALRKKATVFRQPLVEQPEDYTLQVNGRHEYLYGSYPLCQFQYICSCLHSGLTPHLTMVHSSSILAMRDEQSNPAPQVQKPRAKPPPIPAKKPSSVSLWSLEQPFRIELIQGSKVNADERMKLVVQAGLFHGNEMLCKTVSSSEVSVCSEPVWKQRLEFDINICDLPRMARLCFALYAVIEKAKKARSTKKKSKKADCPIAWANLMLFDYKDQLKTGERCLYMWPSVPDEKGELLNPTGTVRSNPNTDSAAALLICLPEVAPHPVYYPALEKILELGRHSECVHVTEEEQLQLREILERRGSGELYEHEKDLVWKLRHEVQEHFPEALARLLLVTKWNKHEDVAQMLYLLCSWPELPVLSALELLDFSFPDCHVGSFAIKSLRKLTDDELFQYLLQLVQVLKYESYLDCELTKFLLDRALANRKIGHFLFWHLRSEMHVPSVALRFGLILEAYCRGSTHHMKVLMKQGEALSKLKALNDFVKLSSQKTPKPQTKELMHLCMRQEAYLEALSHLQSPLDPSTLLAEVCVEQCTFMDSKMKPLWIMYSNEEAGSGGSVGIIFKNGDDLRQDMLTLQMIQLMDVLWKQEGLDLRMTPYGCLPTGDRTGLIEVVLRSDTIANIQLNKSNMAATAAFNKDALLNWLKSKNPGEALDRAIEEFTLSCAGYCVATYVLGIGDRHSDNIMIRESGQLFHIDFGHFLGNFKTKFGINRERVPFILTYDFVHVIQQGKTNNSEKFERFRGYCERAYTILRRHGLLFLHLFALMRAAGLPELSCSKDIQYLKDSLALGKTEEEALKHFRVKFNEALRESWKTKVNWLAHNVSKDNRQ
Description: Inhibition of p110 delta (unknown origin).

Another experiment concerns OVCAR-8. Description: Growth inhibition of human OVCAR-8 cells assessed as reduction in cell viability incubated for 48 hrs by SRB assay. It is filed as functional. On the technique in general: In SRB staining, fixed cells bind dye roughly in proportion to their protein.
The test system of a further experiment is RXF 631. Description: Growth inhibition of human RXF 631 cells assessed as reduction in cell viability incubated for 48 hrs by SRB assay. Type of experiment: functional.
Another experiment relates to SK-OV-3. Description: Growth inhibition of human SK-OV-3 cells assessed as reduction in cell viability incubated for 48 hrs by SRB assay. It is filed as functional.
The next experiment deals with NCI-H460. Description: Growth inhibition of human NCI-H460 cells assessed as reduction in cell viability incubated for 48 hrs by SRB assay. It is filed as functional.
In experiment [4] the target is Phosphatidylinositol 4,5-bisphosphate 3-kinase catalytic subunit alpha isoform (Homo sapiens, UniProt P42336). Description: Inhibition of p110 alpha (unknown origin).
Sequence of Phosphatidylinositol 4,5-bisphosphate 3-kinase catalytic subunit alpha isoform (P42336 whole entry, canonical isoform): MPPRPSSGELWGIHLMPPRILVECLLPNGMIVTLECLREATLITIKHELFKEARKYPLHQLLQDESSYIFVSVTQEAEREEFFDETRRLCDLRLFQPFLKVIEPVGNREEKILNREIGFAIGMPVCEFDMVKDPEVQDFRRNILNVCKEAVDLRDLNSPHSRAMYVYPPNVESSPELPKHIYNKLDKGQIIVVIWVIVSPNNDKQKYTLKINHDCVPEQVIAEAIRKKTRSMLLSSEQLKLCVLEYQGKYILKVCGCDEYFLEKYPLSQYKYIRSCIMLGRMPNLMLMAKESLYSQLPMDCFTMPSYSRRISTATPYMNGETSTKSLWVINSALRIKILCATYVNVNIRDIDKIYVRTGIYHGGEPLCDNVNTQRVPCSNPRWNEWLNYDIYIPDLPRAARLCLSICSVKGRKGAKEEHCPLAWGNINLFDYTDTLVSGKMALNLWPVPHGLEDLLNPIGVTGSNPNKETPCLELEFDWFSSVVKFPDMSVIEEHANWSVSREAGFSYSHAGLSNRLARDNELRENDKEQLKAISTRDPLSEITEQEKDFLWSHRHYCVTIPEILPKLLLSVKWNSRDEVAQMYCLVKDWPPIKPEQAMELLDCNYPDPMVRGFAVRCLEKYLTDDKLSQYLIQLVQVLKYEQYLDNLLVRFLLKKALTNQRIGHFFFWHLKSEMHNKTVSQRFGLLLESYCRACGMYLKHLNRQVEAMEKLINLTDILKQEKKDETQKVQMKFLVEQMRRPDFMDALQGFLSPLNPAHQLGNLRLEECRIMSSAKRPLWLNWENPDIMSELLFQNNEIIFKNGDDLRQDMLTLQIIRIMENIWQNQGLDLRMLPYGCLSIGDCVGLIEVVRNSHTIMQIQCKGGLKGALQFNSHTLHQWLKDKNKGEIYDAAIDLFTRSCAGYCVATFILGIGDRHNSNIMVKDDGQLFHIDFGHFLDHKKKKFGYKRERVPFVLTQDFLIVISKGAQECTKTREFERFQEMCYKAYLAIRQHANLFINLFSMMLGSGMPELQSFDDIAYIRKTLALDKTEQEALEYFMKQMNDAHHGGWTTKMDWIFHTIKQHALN

Sequence of Phosphatidylinositol 4,5-bisphosphate 3-kinase catalytic subunit gamma isoform (P48736 whole entry, canonical isoform): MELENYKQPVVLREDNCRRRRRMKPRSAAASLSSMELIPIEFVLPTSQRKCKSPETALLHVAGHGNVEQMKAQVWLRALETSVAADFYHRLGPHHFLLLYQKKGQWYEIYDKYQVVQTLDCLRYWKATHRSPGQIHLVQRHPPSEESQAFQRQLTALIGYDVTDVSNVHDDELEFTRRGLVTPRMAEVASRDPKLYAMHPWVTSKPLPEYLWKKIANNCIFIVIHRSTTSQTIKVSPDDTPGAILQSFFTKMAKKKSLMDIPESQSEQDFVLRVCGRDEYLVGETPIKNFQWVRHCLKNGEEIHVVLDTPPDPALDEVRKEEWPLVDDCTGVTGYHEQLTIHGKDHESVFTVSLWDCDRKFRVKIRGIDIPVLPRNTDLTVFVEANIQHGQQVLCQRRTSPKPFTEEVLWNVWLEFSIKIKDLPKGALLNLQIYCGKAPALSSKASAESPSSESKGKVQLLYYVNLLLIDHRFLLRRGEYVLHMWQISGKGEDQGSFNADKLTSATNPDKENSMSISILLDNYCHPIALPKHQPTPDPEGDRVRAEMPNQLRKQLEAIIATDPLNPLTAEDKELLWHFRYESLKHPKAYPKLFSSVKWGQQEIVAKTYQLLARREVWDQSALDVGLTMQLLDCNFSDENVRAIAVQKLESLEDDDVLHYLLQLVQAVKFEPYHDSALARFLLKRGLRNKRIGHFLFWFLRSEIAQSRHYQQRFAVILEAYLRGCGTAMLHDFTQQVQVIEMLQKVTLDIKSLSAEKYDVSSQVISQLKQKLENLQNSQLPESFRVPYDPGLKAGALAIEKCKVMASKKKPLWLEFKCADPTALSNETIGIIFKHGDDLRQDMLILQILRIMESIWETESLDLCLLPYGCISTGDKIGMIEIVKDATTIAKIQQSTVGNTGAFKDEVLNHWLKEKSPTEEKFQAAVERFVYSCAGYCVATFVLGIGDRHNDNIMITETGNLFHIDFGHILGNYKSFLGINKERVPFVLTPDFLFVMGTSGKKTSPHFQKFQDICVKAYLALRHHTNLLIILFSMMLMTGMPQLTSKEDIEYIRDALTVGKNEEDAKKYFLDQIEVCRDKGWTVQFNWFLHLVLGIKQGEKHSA
Sequence of Phosphatidylinositol 4,5-bisphosphate 3-kinase catalytic subunit beta isoform (P42338 whole entry, canonical isoform): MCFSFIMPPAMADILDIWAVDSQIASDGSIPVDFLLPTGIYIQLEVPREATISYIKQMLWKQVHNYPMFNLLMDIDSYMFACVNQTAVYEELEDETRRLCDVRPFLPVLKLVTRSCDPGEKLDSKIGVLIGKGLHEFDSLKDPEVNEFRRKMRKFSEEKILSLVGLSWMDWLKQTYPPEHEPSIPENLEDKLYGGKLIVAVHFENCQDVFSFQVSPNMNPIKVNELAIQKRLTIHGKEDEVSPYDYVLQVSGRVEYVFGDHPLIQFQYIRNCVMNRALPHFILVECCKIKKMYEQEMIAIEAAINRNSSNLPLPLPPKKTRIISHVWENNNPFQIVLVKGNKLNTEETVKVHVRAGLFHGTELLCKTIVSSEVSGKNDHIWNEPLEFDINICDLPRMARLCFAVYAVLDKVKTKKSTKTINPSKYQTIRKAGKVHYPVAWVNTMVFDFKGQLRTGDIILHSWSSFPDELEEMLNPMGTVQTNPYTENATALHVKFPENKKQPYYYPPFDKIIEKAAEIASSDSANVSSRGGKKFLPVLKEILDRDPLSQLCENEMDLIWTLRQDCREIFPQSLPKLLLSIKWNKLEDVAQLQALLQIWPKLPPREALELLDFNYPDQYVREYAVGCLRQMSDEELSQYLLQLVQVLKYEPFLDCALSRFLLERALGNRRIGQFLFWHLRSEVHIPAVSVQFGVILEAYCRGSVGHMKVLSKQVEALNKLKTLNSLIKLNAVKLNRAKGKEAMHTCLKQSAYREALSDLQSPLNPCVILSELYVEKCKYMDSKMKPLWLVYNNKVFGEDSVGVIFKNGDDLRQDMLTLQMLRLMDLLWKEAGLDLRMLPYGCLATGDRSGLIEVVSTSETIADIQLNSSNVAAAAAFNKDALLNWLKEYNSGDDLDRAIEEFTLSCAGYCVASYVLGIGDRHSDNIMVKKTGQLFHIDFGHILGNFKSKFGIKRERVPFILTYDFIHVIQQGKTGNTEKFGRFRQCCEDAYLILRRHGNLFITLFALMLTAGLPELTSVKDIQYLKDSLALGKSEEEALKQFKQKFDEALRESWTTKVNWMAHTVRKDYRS

For `COc1cc(Nc2nc3ccccc3nc2NS(=O)(=O)c2ccc(NC(=O)c3ccc(C)c(OC)c3)cc2)cc(OC)c1`, the IC50 in experiment [1] is 113 nM.
Molecule `COc1ncc(-c2ccc3nccc(-c4ccnnc4)c3c2)cc1NS(=O)(=O)c1ccc(F)cc1F` [OMIPALISIB] showed an IC50 in experiment [2] of 1 nM.
For the molecule `COc1ccc(Cl)c(Nc2nc3ccccc3nc2NS(=O)(=O)c2cccc(NC(=O)C(C)(C)N)c2)c1` [PILARALISIB], the IC50 in experiment [3] turned out to be 36 nM; in experiment [2], 23 nM.
On to `FC(F)c1nc2ccccc2n1-c1nc(N2CCOCC2)nc(N2CCOCC2)n1` [ZSTK-474], for which the GI50 with OVCAR-8 was 1260 nM; in the experiment on RXF 631, 316 nM; in the experiment on SK-OV-3, 398 nM; with NCI-H460, 372 nM.
With `C=CCN(/C=C1/C(=O)O[C@H](COC)[C@@]2(C)C1=C(O)C(=O)C1=C2[C@H](OC(C)=O)C[C@]2(C)C(=O)CC[C@@H]12)CC=C` [SONOLISIB], the values for the concentration for half-maximal inhibition (IC50) in experiment [1], in experiment [3] and in experiment [4] were > 300 nM, 3 nM and 6 nM, respectively.
